From US20090306031A1, “5alpha-ANDROSTANE-3,6,17-TRIONE (KNELLER'S TRIONE) AND METHODS OF USE THEREFOR” (priority 2009, published 2009)

Assays:
[1] = Pilot study: sex hormone profile in men after oral daily Kneller's Trione; type: in vivo, human; details: for ending testosterone-to-estradiol ratio: day 14, ratio to 1; for change of testosterone-to-estradiol ratio: starting vs ending (14 days); for ESTRADIOL / BIOAVAILABLE TESTOSTERONE / DHT / TOTAL TESTOSTERONE: person
Experimental: The first study subject was a person who was dosed once per day orally with 25 mg per day of Kneller's Trione.
The second study subject was a person who was dosed once per day orally with 50 mg per day of Kneller's Trione.
The third study subject was a person who was dosed once per day orally with 100 mg per day of Kneller's Trione.

[2] = Pilot study: adverse events and safety observations in study subjects; type: in vivo, human
[3] = 25 mg daily oral, 14 days vs baseline
[4] = 50 mg daily oral, 14 days vs baseline
[5] = 100 mg daily oral, 14 days vs baseline

## C[C@]12CCC(=O)C[C@@H]1C(=O)C[C@@H]1[C@@H]2CC[C@]2(C)C(=O)CC[C@@H]12 [Kneller's Trione, 5α-androstane-3,6,17-trione]
[1]; [3]
  increase in plasma bioavailable testosterone: 20%
  increase in plasma total testosterone: 13%
  reduction in plasma estradiol: 51%
[1]; 25 mg daily oral, starting ratio 133.83 to 1
  ending testosterone-to-estradiol ratio: 308.26
[1]; 25 mg daily oral
  change of testosterone-to-estradiol ratio: 130%
[1]; [4]
  change in plasma estradiol: no change
  increase in plasma bioavailable testosterone: 21%
  increase in plasma total testosterone: 28%
[1]; 50 mg daily oral, starting ratio 238.06 to 1
  ending testosterone-to-estradiol ratio: 305.56
[1]; 50 mg daily oral
  change of testosterone-to-estradiol ratio: 28%
[1]; [5]
  increase in plasma bioavailable testosterone: 146%
  increase in plasma total testosterone: 93%
  reduction in plasma estradiol: 26%
[1]; 100 mg daily oral, starting ratio 102.17 to 1
  ending testosterone-to-estradiol ratio: 266.18
[1]; 100 mg daily oral
  change of testosterone-to-estradiol ratio: 161%
[1]; 250 mg per day oral
  added benefit over a dose of 100 mg per day: did not seem to offer any added benefit
  total testosterone and bioavailable testosterone levels: raised total testosterone and bioavailable testosterone levels substantially and safely
[1]; 500 mg per day oral
  added benefit over a dose of 100 mg per day: did not seem to offer any added benefit
  total testosterone and bioavailable testosterone levels: raised total testosterone and bioavailable testosterone levels substantially and safely
[1]; 750 mg per day oral
  added benefits of high dosage: no added benefits were seen
[1]; general statement, dose not stated
  plasma testosterone levels in men: substantial and significant increases
[1]; general statement, relative to accepted normal limits
  plasma estradiol levels in men: no changes outside the accepted normal limits
[1]; oral administration, dose not stated
  increase of plasma free testosterone levels: more than 100%
[1]; 25 mg per day oral single dose, DAY 7, baseline 47 pg/mL
  ESTRADIOL: 28 pg/mL
[1]; 25 mg per day oral single dose, DAY 7, baseline 843 pg/mL
  BIOAVAILABLE TESTOSTERONE: 966 pg/mL
[1]; 25 mg per day oral single dose, DAY 7, baseline 42 ng/dL
  DHT: 36 ng/dL
[1]; 25 mg per day oral single dose, DAY 7, baseline (day 0) 6,290 pg/mL
  TOTAL TESTOSTERONE: 6,400 pg/mL
[1]; 25 mg per day oral single dose, DAY 14, baseline 47 pg/mL
  ESTRADIOL: 23 pg/mL
[1]; 25 mg per day oral single dose, DAY 14, baseline 843 pg/mL
  BIOAVAILABLE TESTOSTERONE: 1,014 pg/mL
[1]; 25 mg per day oral single dose, DAY 14, baseline 42 ng/dL
  DHT: 49 ng/dL
[1]; 25 mg per day oral single dose, DAY 14, baseline (day 0) 6,290 pg/mL
  TOTAL TESTOSTERONE: 7,090 pg/mL
[1]; 50 mg per day oral single dose, DAY 7, baseline 36 pg/mL
  ESTRADIOL: 35 pg/mL
[1]; 50 mg per day oral single dose, DAY 7, baseline 169.7 pg/mL
  BIOAVAILABLE TESTOSTERONE: 209 pg/mL
[1]; 50 mg per day oral single dose, DAY 7, baseline 47 ng/dL
  DHT: 46 ng/dL
[1]; 50 mg per day oral single dose, DAY 7, baseline (day 0) 8,570 pg/mL
  TOTAL TESTOSTERONE: 11,000 pg/mL
[1]; 50 mg per day oral single dose, DAY 14, baseline 36 pg/mL
  ESTRADIOL: 36 pg/mL
[1]; 50 mg per day oral single dose, DAY 14, baseline 169.7 pg/mL
  BIOAVAILABLE TESTOSTERONE: 209 pg/mL
[1]; 50 mg per day oral single dose, DAY 14, baseline 47 ng/dL
  DHT: 49 ng/dL
[1]; 50 mg per day oral single dose, DAY 14, baseline (day 0) 8,570 pg/mL
  TOTAL TESTOSTERONE: 11,000 pg/mL
[1]; 100 mg per day oral single dose, DAY 7, baseline 46 pg/mL
  ESTRADIOL: 44 pg/mL
[1]; 100 mg per day oral single dose, DAY 7, baseline 794 pg/mL
  BIOAVAILABLE TESTOSTERONE: 1,432 pg/mL
[1]; 100 mg per day oral single dose, DAY 7, baseline 35 ng/dL
  DHT: 48 ng/dL
[1]; 100 mg per day oral single dose, DAY 7, baseline (day 0) 4,700 pg/mL
  TOTAL TESTOSTERONE: 7,910 pg/mL
[1]; 100 mg per day oral single dose, DAY 14, baseline 46 pg/mL
  ESTRADIOL: 34 pg/mL
[1]; 100 mg per day oral single dose, DAY 14, baseline 794 pg/mL
  BIOAVAILABLE TESTOSTERONE: 1,957 pg/mL
[1]; 100 mg per day oral single dose, DAY 14, baseline 35 ng/dL
  DHT: 41 ng/dL
[1]; 100 mg per day oral single dose, DAY 14, baseline (day 0) 4,700 pg/mL
  TOTAL TESTOSTERONE: 9,050 pg/mL
[2]; 750 mg per day oral, subject withdrew from the pilot study
  adverse event: occurrence of a priaprism
[2]; every subject, frequent intervals, oral daily dosages 25 mg to 750 mg
  liver function, kidney function, blood lipid levels, blood pressure, heart rate, respirations, body temperature: within medically established normal ranges and values
[2]; oral daily dosages 25 mg to 750 mg
  other adverse events noted by any study subject: No other adverse events were noted
